According to ChEMBL document CHEMBL5321195, “Exploring the Effect of Halogenation in a Series of Potent and Selective A2B Adenosine Receptor Antagonists” (J Med Chem, 2023):
pIC50: −log10 of the molar value. Converted amounts (≈) assume the structure as drawn. The source made the active and inactive calls. No cut-off for these calls is given here.

Columns and labels:
[1] = molecular target: T1, Adenosine receptor A3 (Homo sapiens) (UniProt P0DMS8); assay: Displacement of [3H]NECA from human A3AR expressed in human HeLa cell membrane at 1 uM incubated for 180 mins by competitive binding assay relative to control; format: cell membranes
T1 sequence (whole entry): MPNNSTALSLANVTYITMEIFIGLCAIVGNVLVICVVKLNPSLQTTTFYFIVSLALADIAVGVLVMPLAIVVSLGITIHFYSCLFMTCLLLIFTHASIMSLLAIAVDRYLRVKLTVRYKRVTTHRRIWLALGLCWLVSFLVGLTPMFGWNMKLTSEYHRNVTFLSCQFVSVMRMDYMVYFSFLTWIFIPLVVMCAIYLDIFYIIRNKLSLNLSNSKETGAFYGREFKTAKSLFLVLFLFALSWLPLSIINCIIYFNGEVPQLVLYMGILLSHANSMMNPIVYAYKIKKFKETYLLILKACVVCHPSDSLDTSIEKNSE

[2] = molecular target: T2, Adenosine receptor A2b (Homo sapiens) (UniProt P29275); assay: Antagonist activity against N-terminal pRK5/SNAP-tagged human A2BAR transfected in HEK293T cells assessed as reduction in NECA-induced change in cellular impedence by measuring AUC measured for 45 mins; format: functional, cell-based; settings: filed as antagonist
T2 sequence (whole entry): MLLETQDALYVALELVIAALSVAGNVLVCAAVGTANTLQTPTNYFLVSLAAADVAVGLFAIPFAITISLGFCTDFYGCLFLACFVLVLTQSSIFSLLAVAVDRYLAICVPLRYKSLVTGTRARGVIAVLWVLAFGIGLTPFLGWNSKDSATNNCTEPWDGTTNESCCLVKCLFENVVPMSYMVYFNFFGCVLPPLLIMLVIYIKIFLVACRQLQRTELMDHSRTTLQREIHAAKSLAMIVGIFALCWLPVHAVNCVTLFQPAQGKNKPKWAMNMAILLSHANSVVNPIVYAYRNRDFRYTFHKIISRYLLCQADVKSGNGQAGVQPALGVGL

[3] = Solubility of compound in 1:99 DMSO/PBS incubated for 4 hrs; format: physicochemical
Cytochrome P450 3A4 [4] = molecular target: T3, Cytochrome P450 3A4 (Homo sapiens, UniProt P08684); assay: Inhibition of CYP3A4 (unknown origin) using 7-BFC as substrate preincubated for 5 mins followed by substrate addition by fluorescence based assay; format: ADME
T3 sequence (P08684 whole entry): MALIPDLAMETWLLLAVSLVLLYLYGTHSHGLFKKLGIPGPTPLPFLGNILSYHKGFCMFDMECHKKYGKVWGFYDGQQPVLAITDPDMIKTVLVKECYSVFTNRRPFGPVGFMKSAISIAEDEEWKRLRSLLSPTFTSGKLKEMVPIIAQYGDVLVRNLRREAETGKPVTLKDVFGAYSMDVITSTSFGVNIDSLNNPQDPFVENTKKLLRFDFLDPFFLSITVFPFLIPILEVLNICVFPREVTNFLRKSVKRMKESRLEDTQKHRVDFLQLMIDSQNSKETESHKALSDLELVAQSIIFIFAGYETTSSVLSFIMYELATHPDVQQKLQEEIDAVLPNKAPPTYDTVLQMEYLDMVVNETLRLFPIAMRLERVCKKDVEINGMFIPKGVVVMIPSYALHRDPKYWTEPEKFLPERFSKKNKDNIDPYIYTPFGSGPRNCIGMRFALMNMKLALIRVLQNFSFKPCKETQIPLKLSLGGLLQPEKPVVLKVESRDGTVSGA

[5] = molecular target: Adenosine receptor A2a (Homo sapiens) (UniProt P29274); assay: Displacement of [3H]DPCPX from human A2AAR expressed in human HeLa cell membrane at 1 uM incubated for 30 mins by competitive binding assay relative to control; format: cell membranes
Chain of Adenosine receptor A2a (Homo sapiens) (P29274 whole entry): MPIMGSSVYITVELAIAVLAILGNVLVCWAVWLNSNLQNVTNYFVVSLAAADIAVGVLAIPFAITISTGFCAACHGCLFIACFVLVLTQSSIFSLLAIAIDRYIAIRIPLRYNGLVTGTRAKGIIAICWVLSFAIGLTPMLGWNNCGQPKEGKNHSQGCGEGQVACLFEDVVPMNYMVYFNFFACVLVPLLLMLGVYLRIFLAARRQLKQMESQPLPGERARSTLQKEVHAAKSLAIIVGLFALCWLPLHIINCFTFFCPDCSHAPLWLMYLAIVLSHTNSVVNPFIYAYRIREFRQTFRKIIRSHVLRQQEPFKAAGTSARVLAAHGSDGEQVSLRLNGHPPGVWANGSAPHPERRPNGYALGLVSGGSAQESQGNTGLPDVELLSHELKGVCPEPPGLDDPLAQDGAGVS

[6] = molecular target: T4, Adenosine receptor A1 (Homo sapiens) (UniProt P30542); assay: Displacement of [3H]DPCPX from human A1AR expressed in CHO cell membrane at 1 uM incubated for 60 mins by competitive binding assay relative to control; format: cell membranes
T4 sequence (whole entry): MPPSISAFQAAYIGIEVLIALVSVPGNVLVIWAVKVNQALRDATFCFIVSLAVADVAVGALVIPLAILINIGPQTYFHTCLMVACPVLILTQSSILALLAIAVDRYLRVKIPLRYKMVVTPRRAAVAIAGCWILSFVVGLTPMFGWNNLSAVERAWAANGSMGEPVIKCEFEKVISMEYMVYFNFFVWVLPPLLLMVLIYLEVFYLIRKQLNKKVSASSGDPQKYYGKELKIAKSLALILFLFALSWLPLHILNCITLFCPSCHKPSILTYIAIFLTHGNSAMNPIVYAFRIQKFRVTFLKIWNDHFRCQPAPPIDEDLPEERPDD

Cytochrome P450 3A4 [7] = molecular target: T3, Cytochrome P450 3A4
Description: Inhibition of CYP3A4 (unknown origin) using DBF as substrate preincubated for 5 mins followed by substrate addition by fluorescence based assay

[8] = Immunostimulatory effect on anti-CD3/CD28 antibodies/IL-2-activated human PBMC cells assessed as reversal of ADO-mediated inhibition of cell proliferation at 15 uM incubated for 3 days by CFSE dye based flow cytometry (reference value: 3.55 %); format: functional; parameters: scale not given: the % may be the effect or the level left; settings: time 3 day

Row | SMILES | Activity [2] | solubility kinetic at 4 h [3] | pIC50 (Cytochrome P450 3A4 [4]) | Activity [5] | further results
1 | CCOC(=O)C1=C(C)Nc2nc3cc(Br)ccc3n2[C@H]1c1ccoc1 |  |  |  |  | Activity [1]: 10%
2 | CCOC(=O)C1=C(C)Nc2nc3cc(Br)ccc3n2C1c1ccoc1 (racemic) | Active |  |  |  | 
3 | CCCn1c(=O)[nH]c2[nH]c(-c3ccc(S(=O)(=O)C4CCC(c5ccc(Cl)cc5)CC4)cc3)nc2c1=O (centres undefined) |  | 0.2 µM (≈ 0.105 µg/mL) |  |  | 
4 | CC1=C(C(=O)OC(C)C)C(c2ccco2)n2c(nc3cc(Br)ccc32)N1 (racemic) | Active |  | < 5.00 |  | 
5 | CC1=C(C(=O)OC(C)C)[C@@H](c2ccco2)n2c(nc3cc(Br)ccc32)N1 |  |  |  | 14% | 
6 | CC1=C(C(=O)OC(C)C)C(c2cocn2)n2c(nc3ccccc32)N1 (centres undefined) |  | 39.7 µM (≈ 13.4 µg/mL) |  | 19% | Activity [6]: 7%; Activity [1]: 16%
7 | CC1=C(C(=O)OC(C)C)C(c2ccco2)n2c(nc3cc(F)ccc32)N1 (racemic) | Active |  | < 5.00 |  | pIC50 (Cytochrome P450 3A4 [7]): < 5.00
8 | CCOC(=O)C1=C(C)Nc2nc3ccccc3n2C1c1cocn1 (centres undefined) |  |  |  |  | Activity [6]: 5%; Activity [1]: 7%
9 | CC1=C(C(=O)OC(C)C)C(c2ccoc2)n2c(nc3ccccc32)N1 (centres undefined) |  | 26.1 µM (≈ 8.81 µg/mL) |  | 23% | 
10 | CC1=C(C(=O)OC(C)C)C(c2ccco2)n2c(nc3ccccc32)N1 (centres undefined) |  | 25.2 µM (≈ 8.5 µg/mL) |  |  | 
11 | CC1=C(C(=O)OC(C)C)C(c2ccco2)n2c(nc3cc(F)c(F)cc32)N1 (racemic) |  |  | < 5.00 |  | pIC50 (Cytochrome P450 3A4 [7]): < 5.00
12 | CC1=C(C(=O)OC(C)C)C(c2ccco2)n2c(nc3cc(Cl)ccc32)N1 (racemic) | Active |  | < 5.00 |  | Activity [8]: 6.64%
13 | CCOC(=O)C1=C(C)Nc2nc3cc(Br)ccc3n2[C@@H]1c1ccoc1 |  |  |  | 12% | 
